Source: a melting point compilation (Tetko et al.; mined from patent text by program, amines drawn as free bases though some values may be those of a salt)

| SMILES | melting point [°C] |
| --- | --- |
| CCn1c(C=Cc2ccccc2)cnc1[N+](=O)[O-] | 154 to 156 |
| CN1Cc2c(-c3nc(CCl)cs3)ncn2-c2ccc(F)c(Cl)c2C1=O | 234 to 235 |
| CC(C)C(O)(C#Cc1cccs1)c1cncnc1 (configuration not stated) | 113 to 114 |
| CNC1NC(=O)c2ccccc21 (configuration not stated) | 152 |
| CC(=O)NCC1CN(c2ccc(N3CCC(C4NN=C(N)S4)CC3)c(F)c2)C(=O)O1 (configuration not stated) | 168 to 169 |
| COc1cccc(CC(=O)O)c1OCCCc1cn(-c2ccc(C(F)(F)F)cn2)nc1C(C)(C)C | 94 to 95 |
| CCCCCCOc1cccc2ncccc12 | 46 to 49 |
| CC(C)(C)OC(=O)N1CCC(Oc2ccc(-c3cn[nH]c(=O)c3)cc2)CC1 | 222 to 223 |
| Cc1ccn2c(C)c(CCc3ccc4nc(C)oc4c3)nc2c1 | 83 to 85 |
| Cc1cccc(NC(=O)NCC(=O)N(CC(=O)N(c2ccccc2)C(C)C)c2ccccc2)c1 | 170 |
| O=C(C(=O)c1cccnc1)c1ccccc1 | 56 to 57 |
| CC(=O)NC1CCC2=C(CC1)C(=O)C(CC(=O)O)C=C2 (configuration not stated) | 198 |
| O=[N+]([O-])c1cc(-c2nnc(Nc3ccc(Cl)c(Cl)c3)s2)cc([N+](=O)[O-])c1 | 305 to 306 |
| O=C(CCSc1ccc2ccccc2c1)c1ccccc1 | 90 to 91 |
| CC1(C)Oc2cc3nonc3cc2C(N2CCC(=O)CC2=O)C1O (configuration not stated) | 220 to 223 |
| CC(=O)C(=[N+]=[N-])C(=O)CCc1ccc(S(=O)(=O)Cl)cc1 | 58 to 59.5 |
| OCc1cccc(-c2ccc3nnn(Cc4ccc5ncccc5c4)c3n2)c1 | 191 to 193 |
| CCCCc1nc(Cl)c(C(=O)NC)n1Cc1ccc2oc(-c3ccccc3NS(=O)(=O)C(F)(F)F)c(Br)c2c1 | 89 to 92 |
| O=C(O)CCCn1ccnc1 | 125 to 126 |
| O=C(Nc1ccc(Cl)cc1[N+](=O)[O-])NC1CCCCC1 | 115 to 116 |
| Cc1cc(SCc2cnc(-c3ccc(C(F)(F)F)cc3)nc2C2CC2)ccc1OC(C)(C)C(=O)O | 129 to 131 |
| Clc1cccc(NNc2cccc(Cl)c2)c1 | 116 |
| COC(=O)C[C@H](O)CC(=O)C=Cc1c(-c2ccc(F)cc2)c(-c2ccccc2)c(C(=O)Nc2ccccc2)n1C(C)C | 72 to 74 |
| CN1C(=O)CC[C@]2(C)c3ccc(-c4cccc(Cl)c4)cc3CC[C@@H]12 | 158 to 165 |
| Cc1cc(-c2ccc(Cl)c(OC3SCC(O)C(O)C3O)c2)ccn1 (configuration not stated) | 137 |
| COC(=O)C(=CC(=CN(C)C)c1ccccc1[N+](=O)[O-])[N+](=O)[O-] | 211 to 214 |

| SMILES | melting point [°C] |
| --- | --- |
| CCCNC(=S)NS(=O)(=O)c1c(NC(=O)OCC)sc(C)c1C#N | 167 to 168 |
| Cc1c(NC(=O)CC(C)(C)C)c(C)c2c(c1-c1cccc(N)n1)OCC2c1ccc(C(C)C)cc1 (configuration not stated) | 237 to 239 |
| CN1CCC(c2c(O)cc(O)c3c(=O)cc(-c4ccccc4Cl)oc23)C1CO (configuration not stated) | 228 to 230 |
| O=c1cc(NCCN2CCN(c3cccc(Cl)c3)CC2)cn[nH]1 | 187 to 189 |
| OCCCCCCc1ccc(OCc2coc(/C=C/c3ccccc3)n2)cc1 | 94 to 95 |
| CCOC(=O)N1CCCSC1=C(C(C)=O)[N+](=O)[O-] | 52 to 54 |
| COc1cc2c(c(O)c1C)COC(C)C2 (configuration not stated) | 143 to 145 |
| CC1(C)OC(c2ccc(S(C)(=O)=O)cc2)=C(c2cccnc2)C1=O | 164 to 166 |
| COc1ccc(CCl)c(F)c1OC | 44.5 to 47.5 |
| COCCOCc1c(CN(C)CC(O)c2cccc(N)c2)sc2c(=O)c(C(=O)NCc3ccc(Cl)cc3)cn(C)c12 (configuration not stated) | 128 to 131 |
| CN1CCN(C2=NC(=O)C(=Cc3cccc(-c4ccc(O)c(C56CC7CC(CC(C7)C5)C6)c4)c3)S2)CC1 | 291 to 294 |
| COc1ccc(C(=O)Nc2ccc(C(=O)Cl)c3ccccc23)cc1OC | 167 to 171 |
| N#Cc1cc(N)ccc1Sc1ccccc1 | 73 to 75 |
| CCOC(=O)c1cnn(-c2ccc(Cl)cc2)c1 | 127 to 128 |
| Cc1ccc(S(=O)(=O)NC(C)C(=O)Cl)cc1 (configuration not stated) | 101 to 102 |
| Cc1ccc(-c2nc3ccc(N)cn3c2CNC(=O)CC(C)C)cc1 | 245 to 247 |
| Nc1ncnc2c1ncn2Cc1nc2ccc(Cl)cc2c(=O)n1-c1ccccc1Cl | 294 to 295 |
| Cc1ccc(N=Cc2ccc(-c3ccccc3)cc2)cc1 | 137 to 139 |
| CN1CC=C(c2cccc3[nH]ccc23)CC1 | 164 |
| CSc1ccc2ccc(N)nc2n1 | 158 |
| COc1c(C)c(C)c(OC)c(C(O)(c2cccnc2)C2CCCC2)c1C (configuration not stated) | 126 to 127 |
| N#Cc1ccc2[nH]cc(C3CCC(=O)C3)c2c1 (configuration not stated) | 136 to 138 |
| Cc1cc(O)c(SCCC(C)C)c(=O)o1 | 81 to 82 |
| NC(=O)C1=C(c2ccccc2)C(c2ccccc2)OC1=O (configuration not stated) | 125 to 127 |
| CC(=O)Oc1ccc(C(=O)NCCO[N+](=O)[O-])cc1 | 95 to 97 |
| COc1cc(OC)c(-c2cccs2)cc1/C=C/C(=O)c1ccc(S(=O)(=O)Nc2ccc(Cl)cn2)cc1 | 228 to 229 |

| SMILES | melting point [°C] |
| --- | --- |
| N#CCCNC(=O)c1cccc(-c2ccc3c(c2)C(Nc2ccc(Cl)cc2Cl)CO3)c1 (configuration not stated) | 165 to 166 |
| CC(C)(C)OC(=O)NC(Cc1ccccc1)C(O)CNCC(O)C(Cc1ccc(OCc2ccccc2)cc1)NC(=O)OCc1ccccc1 (configuration not stated) | 154 to 156 |
| O=C(Nc1cccc(S(=O)(=O)NCC2CC2)c1)c1cnn2c(C(F)F)cc(-c3ccc(C(F)(F)F)cc3)nc12 | 238 |
| COc1cc(Nc2c(C#N)cnc3cc(/C=C/CCCCN4CCOCC4)c(OC)cc23)c(Cl)cc1Cl | 99 to 100 |
| CCCCN(CCCC)c1nnc(N)s1 | 116 to 117 |
| CC(=O)NCCNCc1ccc(-c2cc3ncnc(Nc4ccc5[nH]ccc5c4)c3s2)cc1 | 142 to 155 |
| NS(=O)(=O)c1cscc1C(=O)O | 222 to 224 |
| CCOC(=O)C1=C(COCc2cc(=O)[nH]c(N)n2)NC(C)=C(C(=O)OC)C1c1ccccc1Cl (configuration not stated) | 185 to 187 |
| CC(NC(=O)OC(C)(C)C)C1CCN(c2c(F)c(N)c3c(=O)[nH]c(=O)n4c3c2OCC4C)C1 (configuration not stated) | 136 to 138 |
| CCN[C@H]1CCN(c2c(-c3ccccc3)c(C)c(C#N)c3nc(C4CC4)oc23)C1 | 209 to 211 |
| NC(=O)Cc1cccc(C(O)c2ccccc2)c1N (configuration not stated) | 198 to 199 |
| CC(CNC(=O)Cc1ccccc1)NCC(O)c1ccccc1 (configuration not stated) | 96 to 98 |
| Cc1cc(OC2CCN(CCNC(=O)c3ccc(S(C)(=O)=O)cc3)CC2)ccc1Cl | 123 to 124 |
| CCCCN1CCC(n2nc(-c3cc(Cl)cc4c3OCC4)oc2=O)CC1 | 134 |
| CC1=C(C(=O)OC(C)(C)C)C(c2cccc(Cl)c2Cl)C(C(=O)OC(C)(C)C)=C(C)N1 | 144 to 145 |
| CS(=O)(=O)Oc1cc(CC(=O)O)on1 | 101 to 103 |
| CC(C)(C)c1cc(Cc2cc(C(C)(C)C)cc(C(C)(C)C)c2O)c(O)c(C(C)(C)C)c1 | 141 to 142 |
| Cn1cnc2c1c(=O)n(CCCCCCOc1ccc(Cl)cc1)c(=O)n2C | 97 to 98 |
| CN(C)C1CCN(c2nc(N3CCOCC3)c3ncnc(N(Cc4ccccc4)Cc4ccccc4)c3n2)CC1 | 163 |
| C=CCN1CCC23c4c5ccc(O)c4OC2C(C)C(=NO)CC3(O)C1C5 (configuration not stated) | 128 to 129 |
| COC(=O)Nc1nc2cc(C(=NO)c3ccc(F)cc3)ccc2[nH]1 | > 315 |
| O=C(O)Cc1nn(-c2nc3c(Cc4ccc5scnc5c4)cccc3s2)c(=O)c2ccccc12 | 203 to 204 |
| COc1cc(C)c(S(=O)(=O)N(C)C)cc1[N+](=O)[O-] | 130 to 132 |
| FC(F)(F)Oc1ccc(-c2ccc(OCc3ccccc3)cc2)cc1 | 136 to 137 |
| C=C(C1=C(CCC(=O)OC)C(=O)CC1OC(C)=O)c1ccccc1 (configuration not stated) | 78 to 79 |
| CC(C)(C)OC(=O)C1CCN(C(=O)OCc2ccccc2)N1 (configuration not stated) | 55 to 57 |

| SMILES | melting point [°C] |
| --- | --- |
| Cc1nccn1-c1ccc([N+](=O)[O-])cc1F | 106 to 107 |
| CC(Br)C(=O)c1ccc2c(c1)C(C)NC(=O)N2 (configuration not stated) | 153 to 156 |
| Cc1cc2nccn2nc1OCCCS(=O)(=O)N1CCN(C)CC1 | 118 to 120 |
| CC(C)(C(=O)Cl)C(=S)Cl | 112 to 114 |
| CC(=S)NCC1CN(c2ccc(N(C)C=O)c(F)c2)C(=O)O1 (configuration not stated) | 105 to 107 |
| Cc1ccc(N2N=C(C(F)(F)F)CC2c2ccc(S(C)(=O)=O)cc2)cc1 (configuration not stated) | 140 to 143 |
| O=C(CCl)Nc1cc(C2(Cl)C=C(C(F)(F)F)C=NC2)ccc1O (configuration not stated) | 205 |
| N#CC(=Cc1ccc(CBr)cc1)c1ccccc1 | 61 |
| Cc1cc(CCCCc2cc(C)c(O)c(C(C)(C)C)c2)cc(C(C)(C)C)c1O | 106 to 107 |
| CN1CC(=O)Nc2ccc(C(F)(F)F)cc2C1=O | 203 to 206 |
| O=C(Nc1cc(O)c(Cl)cc1O)c1ccc(O)c(F)c1 | 254 to 256 |
| Cc1cc(F)cc(Oc2ccc([C@@H]3CCCN4CCS(=O)(=O)N=C34)cc2)c1 | 158 to 159 |
| Cc1nc2sc(Cl)cn2c(=O)c1O | 214 to 217 |
| COC(=O)C1=C(C)NC(C)=C(C(=O)OC)C1c1ccccc1F | 206 to 208 |
| COc1cccc(-c2cc3nccnc3[nH]2)c1 | 194 to 196 |
| Cn1c(C(F)(F)F)ccc(-c2cc3c(cc2F)OCC(=O)N3)c1=O | 216 to 218 |
| CCCn1cnc(CO)c1C | 88 to 88.5 |
| O=C(CCCCl)NC1c2ccccc2CS(=O)(=O)c2ccccc21 (configuration not stated) | 215 to 227 |
| O=C(O)[C@@H]1C[C@H](SCc2ccc(C3CCCCC3)cc2)CN1 | 209 to 210 |
| Cc1ccc(-c2cncc(OC3SCC(O)C(O)C3O)c2)cc1 (configuration not stated) | 228 |
| COc1cc(COc2nn(-c3ccccc3)cc2C=O)ccc1OCc1nc(-c2ccccc2)sc1C | 164 to 165 |
| COc1ccccc1-c1cccc([N+](=O)[O-])c1 | 68 to 69 |
| CCCN(O)CCc1ccc2c(c1)C(=O)c1ccccc1CO2 | 121 to 124 |
| CCCCCCCCCCCC[C@]1(C)OO[C@@H]2C[C@H]1CC(=O)[C@@H]2C | 35 |
